Laboratory results as given in the supplement of paper PMC10307832.

Legend:
Assay in all cases: relative viability (nuclei count vs DMSO), 5 days (fraction); higher = more cells survive
BAY61-3606 + Alpelisib = compound: COC1=C(C=C(C=C1)C2=CC3=NC=CN3C(=N2)NC4=C(C=CC=N4)C(=O)N)OC [BAY61-3606] + Cc1nc(NC(=O)N2CCC[C@H]2C(N)=O)sc1-c1ccnc(C(C)(C)C(F)(F)F)c1 [Alpelisib] (partner 2 µM)
Outline: (§1)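 Cells from lung cancer lines were seeded into 1536-well plates and, one day later, dosed by pin tool. Treatments were either a single drug or a fixed dose of an anchor drug with five library-drug doses (not always all listed) in √10 steps. After 5 days, nuclei were stained in a one-step fixation (final 0.05% Triton X-100, 1% formaldehyde, 1 ug/ml Hoechst) and counted on 4× images, and relative viability is the treated-to-vehicle nuclei ratio, as the median of duplicate plates.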

Doxorubicin + Pemetrexed = compound: COc1cccc2c1C(=O)c1c(O)c3c(c(O)c1C2=O)C[C@@](O)(C(=O)CO)C[C@@H]3O[C@H]1C[C@H](N)[C@H](O)[C@H](C)O1 [Doxorubicin] + Nc1nc2[nH]cc(CCc3ccc(C(=O)N[C@@H](CCC(=O)O)C(=O)O)cc3)c2c(=O)[nH]1 [Pemetrexed] (partner 0.2 µM)
Outline: as §1

BAY61-3606 = compound: COC1=C(C=C(C=C1)C2=CC3=NC=CN3C(=N2)NC4=C(C=CC=N4)C(=O)N)OC [BAY61-3606]
Outline: (§2)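 Hoechst staining, done together with fixation and permeabilisation, marked nuclei for 4× imaging and MetaXpress counting. This followed 5 days without medium change after lung cancer cell lines, kept overnight at 37 °C in 1536-well plates, were pinned with five library-drug doses (not always all listed) spaced by √10 on vehicle-anchored plates. Viability is the ratio of treated-well to vehicle-well nuclei, expressed as a median across plates. Plates passed only at control CV below 25% with at least one doubling.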

Doxorubicin = compound: COc1cccc2c1C(=O)c1c(O)c3c(c(O)c1C2=O)C[C@@](O)(C(=O)CO)C[C@@H]3O[C@H]1C[C@H](N)[C@H](O)[C@H](C)O1 [Doxorubicin]
Outline: as §2

| Cell Line | relative viability (BAY61-3606 + Alpelisib; first compound 0.02 µM) | relative viability (BAY61-3606 + Alpelisib; first compound 0.06325 µM) | relative viability (BAY61-3606 + Alpelisib; first compound 0.2 µM) | relative viability (BAY61-3606 + Alpelisib; first compound 0.6325 µM) | relative viability (BAY61-3606 + Alpelisib; first compound 2 µM) | relative viability (Doxorubicin + Pemetrexed; first compound 0.001 µM) | relative viability (Doxorubicin + Pemetrexed; first compound 0.003162 µM) | relative viability (Doxorubicin + Pemetrexed; first compound 0.01 µM) | relative viability (Doxorubicin + Pemetrexed; first compound 0.03162 µM) | relative viability (Doxorubicin + Pemetrexed; first compound 0.1 µM) | relative viability (BAY61-3606; 0.02 µM) | relative viability (BAY61-3606; 0.06325 µM) | relative viability (BAY61-3606; 0.2 µM) | relative viability (BAY61-3606; 0.6325 µM) | relative viability (BAY61-3606; 2 µM) | relative viability (Doxorubicin; 0.001 µM) | relative viability (Doxorubicin; 0.003162 µM) | relative viability (Doxorubicin; 0.01 µM) | relative viability (Doxorubicin; 0.03162 µM) | relative viability (Doxorubicin; 0.1 µM) |
| --- | --- | --- | --- | --- | --- | --- | --- | --- | --- | --- | --- | --- | --- | --- | --- | --- | --- | --- | --- | --- |
| HARA | 0.867 | 0.88 | 0.877 | 0.83 | 0.561 | 0.22 | 0.257 | 0.338 | 0.259 | 0.268 | 1.03 | 0.927 | 0.945 | 0.953 | 0.866 | 0.983 | 1.12 | 1.07 | 0.945 | 0.955 |
| HCC-15 | 0.836 | 0.94 | 0.929 | 0.862 | 0.768 | 0.239 | 0.215 | 0.228 | 0.205 | 0.205 | 1 | 0.971 | 0.994 | 0.988 | 0.896 | 0.807 | 1.08 | 0.975 | 0.811 | 0.654 |
| LOU-NH91 | 0.764 | 0.643 | 0.73 | 0.798 | 0.541 | – | 0.415 | 0.359 | 0.365 | 0.276 | 0.991 | 0.816 | 0.965 | 0.996 | 0.862 | 0.692 | 0.948 | 1.05 | 0.914 | 0.761 |
| NCI-H23 | 0.776 | 0.594 | 0.653 | 0.829 | 0.41 | 0.515 | 0.685 | 0.667 | 0.661 | 0.444 | 1.11 | 1.03 | 0.78 | 0.947 | 0.789 | – | 1.06 | 0.978 | 0.654 | 0.532 |
| NCI-H1666 | 0.903 | – | 0.981 | 0.993 | 0.956 | – | 0.858 | 0.724 | 0.782 | 0.757 | 1.14 | 0.996 | 0.958 | 1.04 | 1.01 | 0.902 | 0.996 | 0.814 | 0.548 | 0.525 |
| NCI-H358 | 0.996 | 0.753 | 0.732 | 0.643 | 0.228 | 0.152 | 0.183 | 0.179 | 0.156 | 0.169 | 0.954 | 0.947 | 0.87 | 0.864 | 0.369 | 0.975 | 1.04 | 0.761 | 0.235 | 0.199 |
| NCI-H2085 | 0.994 | 0.977 | 1.04 | 0.949 | 0.871 | 0.904 | 0.943 | 0.939 | 1.1 | 0.802 | 1.08 | 1.03 | 0.995 | 1.08 | 0.934 | 0.971 | 0.996 | 0.994 | 0.926 | 0.95 |
| LCLC-103H | 0.94 | 0.965 | 0.981 | 1.03 | 1.04 | 0.499 | 0.484 | 0.458 | 0.467 | 0.466 | 1.07 | 0.992 | 0.993 | 1.03 | 0.987 | 0.966 | 1.04 | 0.981 | 1.02 | 0.957 |
